These results are taken from publication PMC7725692 (Frontiers in Molecular Neuroscience, 2020).

Usually EC50 stands for the concentration at which the effect is half-maximal. A low value points to greater potency. In general, inhibition refers to the percentage by which the read-out fell short of the control.

For assay [1], the target named is T1, Ace-ACR-16 (Ancylostoma ceylanicum, UniProt A0A7M1S071).
T1 sequence (A0A7M1S071 22-498): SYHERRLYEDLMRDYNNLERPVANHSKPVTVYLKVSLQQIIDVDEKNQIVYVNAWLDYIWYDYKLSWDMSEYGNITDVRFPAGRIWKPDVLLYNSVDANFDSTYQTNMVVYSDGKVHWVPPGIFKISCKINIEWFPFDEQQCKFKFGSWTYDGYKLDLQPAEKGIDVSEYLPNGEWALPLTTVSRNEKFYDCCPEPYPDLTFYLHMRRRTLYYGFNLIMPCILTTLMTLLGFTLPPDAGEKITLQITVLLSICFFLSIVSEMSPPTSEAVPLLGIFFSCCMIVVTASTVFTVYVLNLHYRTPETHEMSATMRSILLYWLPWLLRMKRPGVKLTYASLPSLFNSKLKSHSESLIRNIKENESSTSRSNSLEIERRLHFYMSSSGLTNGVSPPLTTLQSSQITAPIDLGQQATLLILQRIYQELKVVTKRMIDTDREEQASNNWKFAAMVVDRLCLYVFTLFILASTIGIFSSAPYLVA
Kind of assay: cell-based. Particulars: read-out: % maximal acetylcholine response. Further details: full-length homopentameric receptor, co-expressed with Hco-RIC-3 in Xenopus laevis oocytes.

In assay [2] the target is T2, Nam-ACR-16 (Necator americanus, UniProt A0A7M1S0Z8).
T2 sequence (A0A7M1S0Z8 22-498): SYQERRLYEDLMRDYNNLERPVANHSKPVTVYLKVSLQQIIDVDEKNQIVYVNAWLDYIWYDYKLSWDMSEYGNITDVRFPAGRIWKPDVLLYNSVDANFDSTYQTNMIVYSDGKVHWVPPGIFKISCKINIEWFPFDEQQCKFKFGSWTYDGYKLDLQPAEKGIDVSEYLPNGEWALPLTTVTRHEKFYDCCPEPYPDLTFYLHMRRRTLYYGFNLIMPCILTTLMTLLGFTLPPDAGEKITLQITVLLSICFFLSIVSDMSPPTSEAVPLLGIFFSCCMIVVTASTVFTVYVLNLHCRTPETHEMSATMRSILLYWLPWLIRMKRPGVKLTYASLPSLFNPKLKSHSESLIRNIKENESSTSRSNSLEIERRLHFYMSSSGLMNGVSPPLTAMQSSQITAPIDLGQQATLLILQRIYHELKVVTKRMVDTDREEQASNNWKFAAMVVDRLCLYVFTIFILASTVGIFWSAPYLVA
Kind of assay: two-electrode voltage clamp in Xenopus oocytes, agonist concentration-response. The class given is cell-based. Further details: full-length homopentameric receptor, co-expressed with Hco-RIC-3 in Xenopus laevis oocytes. On the technique in general: Two-electrode voltage clamp is typically applied to oocytes expressing channels or transporters.

Assay [3] has as its target T2, Nam-ACR-16. Kind of assay: two-electrode voltage clamp in Xenopus oocytes, agonist concentration-response (weak partial agonist). The class given is cell-based. Also on record: full-length homopentameric receptor, co-expressed with Hco-RIC-3 in Xenopus laevis oocytes.
Assay [4] has as its target T1, Ace-ACR-16. In words: two-electrode voltage clamp in Xenopus oocytes, agonist concentration-response (full agonist). The class given is cell-based. Also on record: full-length homopentameric receptor, co-expressed with Hco-RIC-3 in Xenopus laevis oocytes.
Assay [5] has as its target T2, Nam-ACR-16. Kind of assay: cell-based. The settings on record: read-out: % inhibition at 500 μM.
For assay [6], the target named is T1, Ace-ACR-16. In words: cell-based. The settings on record: read-out: % inhibition at 500 μM.

Consider `CN1CCCN=C1/C=C/c1cccc(O)c1` [oxantel], for which the Emax on Ace-ACR-16 [1] worked out at 15.6 ± 9.6%.

At Nam-ACR-16 [2], `CC(=O)OCC[N+](C)(C)C` [acetylcholine] came in with a concentration for a half-maximal effect (EC50) of 170 ± 19.2 µM.

For `CN1CCC[C@H]1c1cccnc1` [nicotine], the EC50 on Nam-ACR-16 [3] was 598 ± 59.1 µM; at Ace-ACR-16 [4] it was 24.4 ± 2.89 µM.

In the case of `CN1CCCN=C1/C=C/c1cccs1` [pyrantel], the Emax at Ace-ACR-16 [1] came out at 12.5 ± 7.5%.

In the case of `c1ccc([C@H]2CN3CCSC3=N2)cc1` [levamisole], the inhibition at 500 µM on Nam-ACR-16 [5] was determined as 79.5 ± 7.7%; on Ace-ACR-16 [6] it was 65.1 ± 14.3%.
